Experimental data from patent US20140039008A1, “METHODS FOR THE ADMINISTRATION OF ILOPERIDONE” (VANDA PHARMACEUTICALS, INC., priority 2004, published 2014).
Values joined by “and” are separate entries in the source; they are usually repeats but may differ in a detail not shown here. Equal entries are not always repeated. Marks after values point to notes of the source that are not given here.

Assays:
patients [1] = test: placebo-controlled Phase III studies of iloperidone, QTcF change; type: in vivo, human; conditions: for mean change in the QTcF: most recent study
Description: Iloperidone is a benzisoxazole-piperidinyl derivative, currently in development for the treatment of CNS disorders. […] At lower doses of iloperidone (4 mg-16 mg) QTcF prolongation was minimal (0.1-5 msec). In the most recent study, a greater prolongation was observed when higher doses of iloperidone (20-24 mg/day) were studied. The mean change in the QTcF at doses 20-24 mg/day was 8.5 msec, and 4.6 msec in the 12-16 mg/day dose range in this study.

patients [2] = test: Example 1: QTc change from baseline after iloperidone by CYP2D6 genotype or metabolite ratio; type: in vivo, human; conditions: for QTc change at Period 2: after CYP2D6 inhibitor
From the text: The research leading to the present invention was designed to examine the effect of different doses of iloperidone relative to the effect of ziprasidone and quetiapine on QTc duration under carefully controlled conditions. To further evaluate the possible relationship between exposure to iloperidone and the comparators to QTc duration, reassessment after pharmacological inhibition of the principle metabolic pathways for each drug, under steady-state conditions, was also planned.
The addition of metabolic inhibitors in this study therefore allowed for an evaluation of the effect of increasing blood-concentration of iloperidone and/or its metabolites on QT duration. More specifically, this study allowed for an evaluation of the effect of iloperidone on QTc before and after the addition of the CYP2D6 inhibitor, paroxetine, as well as before and after the addition of the CYP3A4 inhibitor, ketoconazole.
The 128 individuals that participated were a good representation of the total sample of 165 individuals that participated in the trial. 22 of 29 total were from the iloperidone 8 mg bid group, 30 of 34 were from the iloperidone 12 mg bid group, 22 of 31 from the 24 mg qd group, 3 of 5 of the risperidone group, 28 of 33 of the ziprazidone group, and 23 of 33 of the quetiapine group.
In order to understand whether the difference in concentration of P88 at Period 1 Tmax was relevant to the increases in QTc after the addition of the inhibitors, the observed mean of P88 for the CYP2D6G1846A AG group was used to divide all individuals into two classes. The first includes individuals with P88 concentrations at Period 3, after the addition of both inhibitors, of equal to or less than 34 ng/mL and the second class includes individuals with P88 concentration greater than 34 ng/mL. The two classes were then compared in regards to the QTc change from baseline at Period 3. Using an ANOVA statistic for the first class […] (n=55) the QTc mean change from baseline in Period 3 was 22.7 msec and that for P88≦34 (n=12) the mean QTc for the same period was 7.7 msec.
While the results for some groups are not statistically significant, they do indicate a trend supporting the hypothesis that QTc prolongation is correlated to P88/P95 ratio. Similar results were obtained when cutoff ratios of 3.0 and 4.0 were analyzed, providing further support to the hypothesis that the extent of QTc prolongation a patient may experience after treatment can be predicted by measuring P88 and P95 blood levels.
Similar results were observed when considering QTc correlation to the (iloperidone+P88)/P95 ratio. […] While the results for some groups are not statistically significant, they do indicate a trend supporting the hypothesis that QTc prolongation is correlated to (iloperidone+P88)/P95 ratio. Indeed, when cutoff ratios of 3 and higher were analyzed, similar results were obtained providing further support to the hypothesis that the extent of QTc prolongation a patient may experience after treatment can be predicted by measuring iloperidone, P88 and P95 blood levels.

patients [3] = test: Example 2: QTcF change from baseline in iloperidone-treated patients; type: in vivo, human
From the text: From the 300 iloperidone-treated patients initially genotyped for the CYP2D6*4 and * 10 variants (VP-VYV-683-3101), 222 remaining DNA samples were used for this extended pharmacogenomic analysis. One patient was excluded from the analysis due to inconsistent results for the CYP2D6 allele *4 generated by Quest Diagnostics Central Laboratory (Collegeville, Pa.) and Cogenics (Morrisville, N.C.). Pharmacokinetic data of the (iloperidone+P88)/P95 ratio was available for 168 of these patients. QT measurement at Day 14 and 28 was available for 169 and 146 patients respectively.
Analyses were performed on observed case data using an ANCOVA model with the baseline value as a covariate for the change from baseline in QTc (Fridericia formula) and using an ANOVA model for iloperidone blood exposure at Day 14 and Day 28. Linkage disequilibrium analysis was performed using Haploview v4.0 (Barrett et al, 2005).

[4] = in vivo
[5] = in vivo; remark: listed apart in the source

COc1cc(C(C)=O)ccc1OCCCN1CCC(c2noc3cc(F)ccc23)CC1 [iloperidone, 1-[4-[3-[4-(6-fluoro-1,2-benzisoxazol-3-yl)-1-piperidinyl]propoxy]-3-methoxyphenyl]ethanone]
mean change in the QTcF (patients [1]; 12-16 mg/day dose range): 4.6 ms
mean change in the QTcF (patients [1]; 20-24 mg/day): 8.5 ms
QTcF prolongation (patients [1]; lower doses 4 mg-16 mg): 0.1 to 5 ms
LSMean QTc change from Baseline 8 mg bid (patients [2]; (ILO + P88)/P95 ratio <3): 7.2 (n = 23)
LSMean QTc change from Baseline 12 mg bid (patients [2]; (ILO + P88)/P95 ratio <3): 8.7 (n = 31)
LSMean QTc change from Baseline 8 + 12 mg bid (patients [2]; (ILO + P88)/P95 ratio <3): 8.3 (n = 54)
LSMean QTc change from Baseline 24 qd (patients [2]; (ILO + P88)/P95 ratio <3): 14.4 (n = 24)
LSMean QTc change from Baseline All Treatment Groups (patients [2]; (ILO + P88)/P95 ratio <3): 10.424 (n = 78)
LSMean QTc change from Baseline 8 mg bid (patients [2]; (ILO + P88)/P95 ratio >3): 21.3 (n = 5)
LSMean QTc change from Baseline 12 mg bid (patients [2]; (ILO + P88)/P95 ratio >3): 15.2 (n = 3)
LSMean QTc change from Baseline 8 + 12 mg bid (patients [2]; (ILO + P88)/P95 ratio >3): 17.3 (n = 8)
LSMean QTc change from Baseline 24 qd (patients [2]; (ILO + P88)/P95 ratio >3): 30.5 (n = 5)
LSMean QTc change from Baseline All Treatment Groups (patients [2]; (ILO + P88)/P95 ratio >3): 20.031 (n = 13)
QTc change at Period 1 (patients [2]; CYP2D6C100T CC, 8 mg bid): 7.8 (17)
QTc change at Period 2 (patients [2]; CYP2D6C100T CC, 8 mg bid): 11.7 (16)
QTc change at Period 1 (patients [2]; CYP2D6C100T CC, 12 mg bid): 11.8 (23)
QTc change at Period 2 (patients [2]; CYP2D6C100T CC, 12 mg bid): 14.5 (21)
QTc change at Period 1 (patients [2]; CYP2D6C100T CC, 24 mg qd): 9.5 (14)
QTc change at Period 2 (patients [2]; CYP2D6C100T CC, 24 mg qd): 16.4 (15)
QTc change at Period 1 (patients [2]; CYP2D6C100T CT, 8 mg bid): 2.9 (2)
QTc change at Period 2 (patients [2]; CYP2D6C100T CT, 8 mg bid): 12.5 (2)
QTc change at Period 1 (patients [2]; CYP2D6C100T CT, 12 mg bid): 5.8 (6)
QTc change at Period 2 (patients [2]; CYP2D6C100T CT, 12 mg bid): 8.7 (6)
QTc change at Period 1 (patients [2]; CYP2D6C100T CT, 24 mg qd): 19.0 (5)
QTc change at Period 2 (patients [2]; CYP2D6C100T CT, 24 mg qd): 20.6 (5)
QTc change at Period 1 (patients [2]; CYP2D6C100T TT, 8 mg bid): −8.4 (1)
QTc change at Period 2 (patients [2]; CYP2D6C100T TT, 8 mg bid): −0.7 (1)
QTc change at Period 1 (patients [2]; CYP2D6C100T TT, 12 mg bid): 17.7 (1)
QTc change at Period 2 (patients [2]; CYP2D6C100T TT, 12 mg bid): 25.0 (1)
QTc change at Period 1 (patients [2]; CYP2D6C100T TT, 24 mg qd): 38.4 (1)
QTc change at Period 2 (patients [2]; CYP2D6C100T TT, 24 mg qd): 28.4 (1)
QTc change at Period 1 (patients [2]; CYP2D6G1846A AA, 12 mg bid): 17.7 (1)^a
QTc change at Period 2 (patients [2]; CYP2D6G1846A AA, 12 mg bid): 25.0 (1)
QTc change at Period 1 (patients [2]; CYP2D6G1846A AA, 24 mg qd): 38.4 (1)
QTc change at Period 2 (patients [2]; CYP2D6G1846A AA, 24 mg qd): 28.4 (1)
QTc change at Period 1 (patients [2]; CYP2D6G1846A AG, 8 mg bid): −0.8 (3)
QTc change at Period 2 (patients [2]; CYP2D6G1846A AG, 8 mg bid): 8.1 (3)
QTc change at Period 1 (patients [2]; CYP2D6G1846A AG, 12 mg bid): 5.8 (6)
QTc change at Period 2 (patients [2]; CYP2D6G1846A AG, 12 mg bid): 8.7 (6)
QTc change at Period 1 (patients [2]; CYP2D6G1846A AG, 24 mg qd): 19.0 (5)
QTc change at Period 2 (patients [2]; CYP2D6G1846A AG, 24 mg qd): 20.6 (5)
QTc change at Period 1 (patients [2]; CYP2D6G1846A GG, 8 mg bid): 7.8 (17)
QTc change at Period 2 (patients [2]; CYP2D6G1846A GG, 8 mg bid): 11.7 (18)
QTc change at Period 1 (patients [2]; CYP2D6G1846A GG, 12 mg bid): 11.8 (23)
QTc change at Period 2 (patients [2]; CYP2D6G1846A GG, 12 mg bid): 14.5 (21)
QTc change at Period 1 (patients [2]; CYP2D6G1846A GG, 24 mg qd): 14.0 (14)
QTc change at Period 2 (patients [2]; CYP2D6G1846A GG, 24 mg qd): 16.4 (15)
LSMean QTc change from Baseline 8 mg bid (patients [2]; P88/P95 ratio <2): 7.2 (n = 23)
LSMean QTc change from Baseline 12 mg bid (patients [2]; P88/P95 ratio <2): 8.7 (n = 31)
LSMean QTc change from Baseline 8 + 12 mg bid (patients [2]; P88/P95 ratio <2): 8.3 (n = 54)
LSMean QTc change from Baseline 24 qd (patients [2]; P88/P95 ratio <2): 13.9 (n = 24)
LSMean QTc change from Baseline All Treatment Groups (patients [2]; P88/P95 ratio <2): 10.244 (n = 78)
LSMean QTc change from Baseline 8 mg bid (patients [2]; P88/P95 ratio >2): 21.3 (n = 5)
LSMean QTc change from Baseline 12 mg bid (patients [2]; P88/P95 ratio >2): 17.4 (n = 3)
LSMean QTc change from Baseline 8 + 12 mg bid (patients [2]; P88/P95 ratio >2): 18.3 (n = 8)
LSMean QTc change from Baseline 24 qd (patients [2]; P88/P95 ratio >2): 29.4 (n = 5)
LSMean QTc change from Baseline All Treatment Groups (patients [2]; P88/P95 ratio >2): 21.111 (n = 13)
QTc mean change from baseline in Period 3 (patients [2]; individuals with P88>34 ng/mL at Period 3, after addition of both inhibitors): 22.7 ms
QTc mean change from baseline in Period 3 (patients [2]; individuals with P88≦34 ng/mL at Period 3, after addition of both inhibitors): 7.7 ms
QTcF change, LS Squares Mean QTcF change from baseline (patients [3]; Day 14, 1 or 2 non-functional CYP2D6 alleles): 16.3 msec and 16.3 (N = 59) msec
QTcF change, LS Squares Mean QTcF change from baseline (patients [3]; Day 14, 2 functional CYP2D6 alleles): 9.7 msec and 9.7 (N = 110) msec
QTcF change, LS Squares Mean QTcF change from baseline (patients [3]; Day 14, (iloperidone+P88)/P95 ratio >1): 16.0 msec and 16.0 (N = 99) msec
QTcF change, LS Squares Mean QTcF change from baseline (patients [3]; Day 14, (iloperidone+P88)/P95 ratio ≦1): 7.9 msec and 7.9 (N = 127) msec
QTcF change, LS Squares Mean QTcF change from baseline (patients [3]; Day 28, 1 or 2 non-functional CYP2D6 alleles): 11.4 msec and 11.4 (N = 56) msec
QTcF change, LS Squares Mean QTcF change from baseline (patients [3]; Day 28, 2 functional CYP2D6 alleles): 4.4 msec and 4.4 (N = 90) msec
QTcF change, LS Squares Mean QTcF change from baseline (patients [3]; Day 28, (iloperidone+P88)/P95 ratio >1): 10.1 msec and 10.1 (N = 79) msec
QTcF change, LS Squares Mean QTcF change from baseline (patients [3]; Day 28, (iloperidone+P88)/P95 ratio ≦1): 4.8 msec and 4.8 (N = 119) msec
increase of the area under the curve (AUC) [4]: 131%
increase in the concentrations [5]: 38-58%
